± gives the expanded uncertainty stated by the source.
Legend:
[1] = xn = mol fraction of the nth substance listed; details: 101 kPa, Liquid
[2] = refractive index (Na D-line) (dimensionless); xn = mol fraction of the nth substance listed; details: 101 kPa, Liquid

CCO [ethanol] + CCCCn1cc[n+](C)c1.COS(=O)(=O)[O-]
x2 = 0
Details | mass density, 293.15 K [kg/m3] | mass density, 298.15 K [kg/m3] | mass density, 303.15 K [kg/m3] | refractive index, 293.15 K | refractive index, 298.15 K | refractive index, 303.15 K | speed of sound, 293.15 K [m/s] | speed of sound, 298.15 K [m/s] | speed of sound, 303.15 K [m/s]
[1] | 789.3 ± 0.9 | 785.1 ± 0.9 | 780.7 ± 0.9 | – | – | – | 1160 ± 10 | 1143 ± 10 | 1127 ± 9
[2] | – | – | – | 1.36138 ± 0.0013 | 1.35929 ± 0.0013 | 1.35725 ± 0.0013 | – | – | –

CCCCn1cc[n+](C)c1.COS(=O)(=O)[O-] [1-butyl-3-methylimidazolium methyl sulfate] + CCO
Details | mass density, 293.15 K [kg/m3] | mass density, 298.15 K [kg/m3] | mass density, 303.15 K [kg/m3] | refractive index, 293.15 K | refractive index, 298.15 K | refractive index, 303.15 K | speed of sound, 293.15 K [m/s] | speed of sound, 298.15 K [m/s] | speed of sound, 303.15 K [m/s]
[1], x1 = 0.0501 | 860.2 ± 0.7 | 856.4 ± 0.8 | 852.2 ± 0.8 | – | – | – | 1218 ± 10 | 1203 ± 10 | 1189 ± 10
[1], x1 = 0.1015 | 916.9 ± 0.6 | 913 ± 0.6 | 909 ± 0.6 | – | – | – | 1277 ± 10 | 1262 ± 10 | 1248 ± 10
[1], x1 = 0.1961 | 993.7 ± 0.4 | 990 ± 0.4 | 986.2 ± 0.4 | – | – | – | 1358 ± 11 | 1343 ± 11 | 1324 ± 11
[1], x1 = 0.299 | 1052.2 ± 0.5 | 1048.6 ± 0.5 | 1044.9 ± 0.5 | – | – | – | 1425 ± 11 | 1412 ± 11 | 1392 ± 11
[1], x1 = 0.3914 | 1091.3 ± 0.7 | 1087.8 ± 0.7 | 1084.1 ± 0.7 | – | – | – | 1479 ± 12 | 1466 ± 12 | 1446 ± 11
[1], x1 = 0.5025 | 1127.3 ± 1 | 1123.7 ± 0.9 | 1120.1 ± 0.9 | – | – | – | 1538 ± 12 | 1525 ± 12 | 1508 ± 12
[1], x1 = 0.6073 | 1153.5 ± 1.2 | 1150 ± 1.2 | 1146.5 ± 1.1 | – | – | – | 1576 ± 12 | 1563 ± 12 | 1553 ± 12
[1], x1 = 0.6982 | 1172 ± 1.4 | 1168.5 ± 1.4 | 1165 ± 1.3 | – | – | – | 1598 ± 12 | 1584 ± 12 | 1574 ± 12
[1], x1 = 0.8002 | 1189.2 ± 1.6 | 1185.6 ± 1.6 | 1182.2 ± 1.6 | – | – | – | 1626 ± 13 | 1612 ± 13 | 1602 ± 13
[1], x1 = 0.8992 | 1203.1 ± 1.8 | 1199.7 ± 1.8 | 1196.3 ± 1.8 | – | – | – | 1650 ± 13 | 1636 ± 13 | 1626 ± 13
[1], x1 = 0.9498 | 1209.5 ± 2 | 1206.1 ± 2 | 1202.7 ± 1.9 | – | – | – | 1659 ± 13 | 1645 ± 13 | 1633 ± 13
[1], x1 = 1 | 1215.6 ± 2.1 | 1212.2 ± 2.1 | 1208.8 ± 2.1 | – | – | – | 1671 ± 13 | 1658 ± 13 | 1645 ± 13
[2], x1 = 0.0501 | – | – | – | 1.38149 ± 0.0013 | 1.3797 ± 0.0013 | 1.37885 ± 0.0014 | – | – | –
[2], x1 = 0.1015 | – | – | – | 1.39827 ± 0.0013 | 1.39667 ± 0.0013 | 1.39541 ± 0.0014 | – | – | –
[2], x1 = 0.1961 | – | – | – | 1.42043 ± 0.0013 | 1.41884 ± 0.0013 | 1.41656 ± 0.0015 | – | – | –
[2], x1 = 0.299 | – | – | – | 1.43625 ± 0.0013 | 1.43478 ± 0.0013 | 1.43335 ± 0.0014 | – | – | –
[2], x1 = 0.3914 | – | – | – | 1.44713 ± 0.0013 | 1.4456 ± 0.0013 | 1.44408 ± 0.0013 | – | – | –
[2], x1 = 0.5025 | – | – | – | 1.45714 ± 0.0013 | 1.45586 ± 0.0013 | 1.45509 ± 0.0013 | – | – | –
[2], x1 = 0.6073 | – | – | – | 1.46429 ± 0.0013 | 1.46284 ± 0.0013 | 1.46136 ± 0.0013 | – | – | –
[2], x1 = 0.6982 | – | – | – | 1.46926 ± 0.0013 | 1.4678 ± 0.0013 | 1.46639 ± 0.0013 | – | – | –
[2], x1 = 0.8002 | – | – | – | 1.47391 ± 0.0013 | 1.47249 ± 0.0013 | 1.47111 ± 0.0013 | – | – | –
[2], x1 = 0.8992 | – | – | – | 1.47757 ± 0.0013 | 1.47623 ± 0.0013 | 1.47485 ± 0.0013 | – | – | –
[2], x1 = 0.9498 | – | – | – | 1.47901 ± 0.0013 | 1.47766 ± 0.0013 | 1.47622 ± 0.0013 | – | – | –
[2], x1 = 1 | – | – | – | 1.48077 ± 0.0013 | 1.47942 ± 0.0013 | 1.47806 ± 0.0013 | – | – | –

CCO [ethanol] + CCCCn1cc[n+](C)c1.F[P-](F)(F)(F)(F)F
x2 = 0
Details | mass density, 293.15 K [kg/m3] | mass density, 298.15 K [kg/m3] | mass density, 303.15 K [kg/m3] | refractive index, 293.15 K | refractive index, 298.15 K | refractive index, 303.15 K | speed of sound, 293.15 K [m/s] | speed of sound, 298.15 K [m/s] | speed of sound, 303.15 K [m/s]
[1] | 789.3 ± 0.9 | 785.1 ± 0.9 | 780.7 ± 0.9 | – | – | – | 1160 ± 10 | 1143 ± 10 | 1127 ± 9
[2] | – | – | – | 1.36138 ± 0.0013 | 1.35929 ± 0.0013 | 1.35725 ± 0.0013 | – | – | –

CCO [ethanol] + COS(=O)(=O)[O-].Cn1cc[n+](C)c1
x2 = 0
Details | mass density, 293.15 K [kg/m3] | mass density, 298.15 K [kg/m3] | mass density, 303.15 K [kg/m3] | refractive index, 293.15 K | refractive index, 298.15 K | refractive index, 303.15 K | speed of sound, 293.15 K [m/s] | speed of sound, 298.15 K [m/s] | speed of sound, 303.15 K [m/s]
[1] | 789.3 ± 0.9 | 785.1 ± 0.9 | 780.7 ± 0.9 | – | – | – | 1160 ± 10 | 1143 ± 10 | 1127 ± 9
[2] | – | – | – | 1.36138 ± 0.0013 | 1.35929 ± 0.0013 | 1.35725 ± 0.0013 | – | – | –

Reference: the NIST ThermoML archive (doi:10.1016/j.jct.2006.10.017)
